# Test results: US11746116B2, “Antibiotic resistance breakers” (KING'S COLLEGE LONDON, priority 2017, dated 2023)
# Read-outs that look alike come from different tables or passages of the source.
# Test system: extended bacterial panel
# Test: MIC against an extended bacterial panel (Table 15)
# Format: cell-based
structure (smiles),measurement,setting,value
CC(=O)NC[C@H]1CN(c2ccc(N3CCOCC3)c(F)c2)C(=O)O1 [Linezolid],MIC,"Staphylococcus aureus, ATCC 700699 / MRSA / VISA, Staphylococcus aureus Mu50, ATCC 700699, MRSA/VISA, read-out: MIC",2 µg/mL
same,MIC,"Staphylococcus aureus, MRSA / NRS 3 / VISA, Staphylococcus aureus NRS3, MRSA/VISA, read-out: MIC",1 µg/mL
same,MIC,"Staphylococcus aureus, MRSA / NRS 17 / VISA, Staphylococcus aureus NRS17, MRSA/VISA, read-out: MIC",2 µg/mL
same,MIC,"Staphylococcus aureus, MRSA / NRS 22 / USA600 / VISA, Staphylococcus aureus NRS22, USA600 MRSA/VISA, read-out: MIC",4 µg/mL
same,MIC,"Staphylococcus aureus, MRSA / NRS 56 / VISA, Staphylococcus aureus NRS56, MRSA/VISA, read-out: MIC",2 µg/mL
same,MIC,"Staphylococcus aureus, MRSA / NRS 100, Staphylococcus aureus COL, NRS100, MRSA, read-out: MIC",2 µg/mL
same,MIC,"Staphylococcus aureus, MRSA / NRS 269, Staphylococcus aureus NRS269, MRSA TGC-NS, read-out: MIC",2 µg/mL
same,MIC,"Staphylococcus aureus, MRSA / NRS 402 / VISA, Staphylococcus aureus NRS402, MRSA/VISA DAP-NS",1 µg/mL
same,MIC,"Staphylococcus aureus, MRSA / VISA, Staphylococcus aureus FDA-CDC AR-BANK# 0215, MRSA/VISA, read-out: MIC",4 µg/mL
same,MIC,"Staphylococcus aureus, MRSA / VISA, Staphylococcus aureus FDA-CDC AR-BANK# 0216, MRSA/VISA, read-out: MIC",2 µg/mL
same,MIC,"Staphylococcus aureus, MRSA / VISA, Staphylococcus aureus FDA-CDC AR-BANK# 0217, MRSA/VISA, read-out: MIC",1 µg/mL
same,MIC,"Staphylococcus aureus, MRSA / VISA, Staphylococcus aureus FDA-CDC AR-BANK# 0218, MRSA/VISA Mupirocin-R, read-out: MIC",1 µg/mL
same,MIC,"Staphylococcus aureus, MRSA / VISA, Staphylococcus aureus FDA-CDC AR-BANK# 0219, MRSA/VISA, read-out: MIC",2 µg/mL
same,MIC,"Staphylococcus aureus, MRSA / VISA, Staphylococcus aureus FDA-CDC AR-BANK# 0220, MRSA/VISA, read-out: MIC",2 µg/mL
same,MIC,"Staphylococcus aureus, MRSA / VISA, Staphylococcus aureus FDA-CDC AR-BANK# 0221, MRSA/VISA, read-out: MIC",2 µg/mL
same,MIC,"Staphylococcus aureus, MRSA / VISA, Staphylococcus aureus FDA-CDC AR-BANK# 0223, MRSA/VISA, read-out: MIC",2 µg/mL
same,MIC,"Staphylococcus aureus, MRSA / VISA, Staphylococcus aureus FDA-CDC AR-BANK# 0224, MRSA/VISA Mupirocin-R, read-out: MIC",4 µg/mL
same,MIC,"Staphylococcus aureus, MRSA / VISA, Staphylococcus aureus FDA-CDC AR-BANK# 0225, MRSA/VISA, read-out: MIC",2 µg/mL
same,MIC,"Staphylococcus aureus, MRSA / VISA, Staphylococcus aureus FDA-CDC AR-BANK# 0226, MRSA/VISA, read-out: MIC",2 µg/mL
same,MIC,"Staphylococcus aureus, MRSA / VISA, Staphylococcus aureus FDA-CDC AR-BANK# 0227, MRSA/VISA, read-out: MIC",4 µg/mL
same,MIC,"Staphylococcus aureus, MRSA / VISA, Staphylococcus aureus FDA-CDC AR-BANK# 0228, MRSA/VISA Mupirocin-R, read-out: MIC",2 µg/mL
same,MIC,"Staphylococcus aureus, MRSA / VRSA, Staphylococcus aureus VRS1, VanA MRSA/VRSA, read-out: MIC",2 µg/mL
same,MIC,"Staphylococcus aureus, MRSA / VRSA, Staphylococcus aureus VRS2, VanA MRSA/VRSA, read-out: MIC",2 µg/mL
same,MIC,"Staphylococcus aureus, MRSA / VRSA, Staphylococcus aureus VRS3a, VanA MRSA/VRSA, read-out: MIC",4 µg/mL
same,MIC,"Staphylococcus aureus, MRSA / VRSA, Staphylococcus aureus VRS11b, VanA MRSA/VRSA, read-out: MIC",2 µg/mL
same,MIC,"Staphylococcus aureus, MRSA, Staphylococcus aureus ECL 2963666, MRSA DAP-NS, read-out: MIC",1 µg/mL
same,MIC,"Staphylococcus aureus, NRS 12 / VISA, Staphylococcus aureus NRS12, VISA, read-out: MIC",4 µg/mL
same,MIC,"Staphylococcus aureus, VISA, Staphylococcus aureus FDA-CDC AR-BANK# 0222, VISA, read-out: MIC",2 µg/mL
same,MIC,"Staphylococcus aureus, VRSA, Staphylococcus aureus ECL 2963646, VRSA, read-out: MIC",2 µg/mL
same,MIC,"Staphylococcus epidermidis, NRS7, Staphylococcus epidermidis NRS7, VISE, read-out: MIC",4 µg/mL
same,MIC,"Staphylococcus epidermidis, NRS8, Staphylococcus epidermidis NRS8, VISE, read-out: MIC",2 µg/mL
same,MIC,"Staphylococcus epidermidis, NRS60, Staphylococcus epidermidis NRS60, VISE, read-out: MIC",2 µg/mL
